Reference: patent US11360080B2, “AhR-ROR-γt complex as a biomarker and therapeutic target for autoimmune disease and IL-17A-associated disease” (NATIONAL HEALTH RESEARCH INSTITUTES, priority 2018, dated 2022)
Where a name gives a salt, the structure may show the parent alone.

Legend:
[1] = target: T1, GLK−IQGAP1 interaction (Homo sapiens, UniProt Q8IVH8); test: FRET assay of HEK293T cells with CFP- and YFP-fused GLK and IQGAP1; format: cell-based
T1 construct: expressed in transfected cells; host or cells: HEK293T
Experimental: (A) Silver-stained gel of anti-Flag immunoprecipitates from HEK293T cells transfected with empty vector or Flag-tagged GLK in the presence or absence of the tyrosine phosphatase inhibitor pervanadate (25 μM). Arrows indicate the positions of GLK or GLK-interacting proteins. (B) Four pervanadate-induced tyrosine phosphorylation residues of GLK proteins were listed. (C and D) Co-immunoprecipitation of anti-Flag (C) or anti-Myc (D) immunocomplexes from lysates of HEK293T cells transfected with Flag-tagged GLK, Myc-tagged IQGAP1, or both plasmids. The whole-cell lysate immunoblots before immunoprecipitation (Pre-IP) are shown at the bottom of each panel. β-Tubulin was used as the loading control. (E) Co-immunoprecipitation of anti-Flag immunocomplexes from lysates of HEK293T cells transfected with either Flag-tagged GLK or Flag-tagged GLK mutant (Y366F, Y379F, Y574F, or Y735F). […]
FRET signal in live cells was detected by EnVision 2104 Multilabel Plate Reader (Perkin Elmer). The reaction was excited by light passing through a 430-nm filter (with 8 nm bandwidth), and the intensity of emitted fluorescence passing through a 530-nm filter (with 8 nm bandwidth) was recorded. If the protein-protein pair is in close proximity (1-10 nm), a 530-nm signal will be detected. […]

[2] = system: TC-1 lung cancer cells; test: TC-1 lung cancer xenograft model in wild-type mice; format: in vivo, mouse; conditions: i.v. C1 10 uM, C2 17 uM every 3 days for 15 days
Experimental: (A) Murine TC-1 lung cancer cells were subcutaneously inoculated into the right flank of wild-type mice for establishing a TC-1 xenograft model. TC-1 cells inoculated mice were intravenously injected with PBS, C1 (verteporfin) (10 uM), or C2 (alexidine dihydrochloride) (17 uM) every 3 days for 15 days. (B) Photographs of excised TC-1 lung cancers after receiving PBS, C1 (verteporfin) (10 uM), or C2 (17 uM) treatment. (C) The growth (mean tumor volume) of tumor was measured for 15 days. The TC-1 tumor size progression as a function of time post-administration with C1 or C2. N.D., not detectable. C1 denotes verteporfin; C2 denotes alexidine dihydrochloride.

T1 sequence (Q8IVH8 whole entry, the tested form may be a part): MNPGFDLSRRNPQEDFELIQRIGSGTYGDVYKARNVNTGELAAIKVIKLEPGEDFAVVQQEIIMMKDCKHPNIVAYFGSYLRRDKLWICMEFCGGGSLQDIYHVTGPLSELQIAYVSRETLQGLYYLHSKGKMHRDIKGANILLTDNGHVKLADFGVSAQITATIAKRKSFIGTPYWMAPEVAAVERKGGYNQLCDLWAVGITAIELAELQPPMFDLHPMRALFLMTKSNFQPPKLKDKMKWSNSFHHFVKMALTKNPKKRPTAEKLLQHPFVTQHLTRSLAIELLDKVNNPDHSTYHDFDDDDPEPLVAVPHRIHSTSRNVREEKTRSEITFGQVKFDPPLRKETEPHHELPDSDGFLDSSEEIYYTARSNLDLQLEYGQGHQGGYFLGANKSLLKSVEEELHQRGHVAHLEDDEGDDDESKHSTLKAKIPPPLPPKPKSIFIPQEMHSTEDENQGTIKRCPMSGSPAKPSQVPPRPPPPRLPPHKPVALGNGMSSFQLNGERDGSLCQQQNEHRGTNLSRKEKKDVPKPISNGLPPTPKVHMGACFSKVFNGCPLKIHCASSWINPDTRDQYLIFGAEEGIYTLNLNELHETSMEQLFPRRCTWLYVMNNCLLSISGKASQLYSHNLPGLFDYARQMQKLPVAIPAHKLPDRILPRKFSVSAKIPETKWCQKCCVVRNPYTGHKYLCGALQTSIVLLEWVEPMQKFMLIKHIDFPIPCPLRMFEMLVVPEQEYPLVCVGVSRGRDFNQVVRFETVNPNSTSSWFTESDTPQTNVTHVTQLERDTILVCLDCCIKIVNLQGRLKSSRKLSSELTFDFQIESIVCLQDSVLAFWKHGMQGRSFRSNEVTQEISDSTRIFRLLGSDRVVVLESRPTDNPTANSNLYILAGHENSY

FRET signals of GLK−IQGAP1 interaction [1] | SMILES | tumor growth (mean tumor volume) [2]
inhibited | C=Cc1c(C)c2cc3nc(cc4[nH]c(cc5nc(cc1[nH]2)C(C)=C5CCC(=O)O)c(CCC(=O)OC)c4C)[C@@]1(C)C3=CC=C(C(=O)OC)[C@H]1C(=O)OC [C1, verteporfin] | suppressed
inhibited | CCCCC(CC)CNC(=N)NC(=N)NCCCCCCNC(=N)NC(=N)NCC(CC)CCCC (stereo not shown) [C2, alexidine dihydrochloride] | suppressed
